Laboratory results as given in ChEMBL document CHEMBL4819069, “Discovery of multifunctional anti-Alzheimer's agents with a unique mechanism of action including inhibition of the enzyme butyrylcholinesterase and γ-aminobutyric acid transporters” (Eur J Med Chem, 2021).
Activity calls are given as the source filed them. No cut-off for these calls is given here.

Legend:
[1] = target: Acetylcholinesterase (Electrophorus electricus) (UniProt O42275); assay: Inhibition of electric eel AChE at 10 uM using acetylthiocholine as substrate preincubated for 5 mins followed by substrate addition and measured after 5 mins by Ellman's method relative to control; details: time 10.0 min
[2] = target: T1, GABA transporter 4 (Mus musculus) (UniProt P31650); assay: Inhibition of mouse GAT3 expressed in HEK293 cell line assessed as reduction in [3H]GABA uptake at 100 uM incubated for 10 mins relative to control; type: cell-based
T1 sequence (whole entry): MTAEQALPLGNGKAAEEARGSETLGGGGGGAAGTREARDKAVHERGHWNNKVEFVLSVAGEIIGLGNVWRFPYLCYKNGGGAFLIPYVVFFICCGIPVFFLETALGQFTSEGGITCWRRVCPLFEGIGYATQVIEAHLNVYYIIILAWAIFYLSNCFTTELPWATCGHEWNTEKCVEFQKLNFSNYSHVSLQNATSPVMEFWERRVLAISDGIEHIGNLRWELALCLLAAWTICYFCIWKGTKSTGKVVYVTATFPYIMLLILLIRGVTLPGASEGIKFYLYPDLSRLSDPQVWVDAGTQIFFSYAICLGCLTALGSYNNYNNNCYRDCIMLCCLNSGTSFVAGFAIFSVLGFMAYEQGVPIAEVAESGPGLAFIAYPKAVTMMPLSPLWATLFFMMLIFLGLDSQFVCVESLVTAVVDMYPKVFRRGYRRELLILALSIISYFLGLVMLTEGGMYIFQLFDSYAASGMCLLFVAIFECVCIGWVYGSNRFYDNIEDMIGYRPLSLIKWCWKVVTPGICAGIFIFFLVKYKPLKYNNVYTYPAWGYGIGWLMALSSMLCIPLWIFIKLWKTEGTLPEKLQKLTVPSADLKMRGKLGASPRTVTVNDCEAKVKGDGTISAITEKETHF

[3] = target: Amyloid-beta precursor protein (Homo sapiens) (UniProt P05067); assay: Inhibition of HFIP-pretreated amyloid beta (1 to 42) (unknown origin) aggregation at 10 uM after 36 to 48 hrs by thioflavin-T fluorescence assay relative to control; details: time 36-48 hrs
[4] = target: Sodium- and chloride-dependent GABA transporter 1 (Mus musculus) (UniProt P31648); assay: Inhibition of NO711 binding to mouse GAT1 expressed in HEK cell membranes at 100 uM incubated for 40 mins in presence of NO711 by LC-ESI-MS/MS analysis relative to control; details: Membrane
[5] = target: T2, Sodium- and chloride-dependent GABA transporter 1 (Mus musculus, UniProt P31648); assay: Inhibition of mouse GAT1 expressed in HEK293 cell line assessed as reduction in [3H]GABA uptake incubated for 10 mins; type: cell-based
[6] = target: T3, Cholinesterase (Homo sapiens, UniProt P06276); assay: Inhibition of human BuchE at 1 uM using butyrylthiocholine as substrate preincubated for 5 mins followed by substrate addition and measured after 5 mins by Ellman's method relative to control; details: time 10.0 min
[7] = target: T4, GABA transporter 3 (Mus musculus) (UniProt P31649); assay: Inhibition of mouse GAT2 expressed in HEK293 cell line assessed as reduction in [3H]GABA uptake at 100 uM incubated for 10 mins relative to control; type: cell-based
T4 sequence (whole entry): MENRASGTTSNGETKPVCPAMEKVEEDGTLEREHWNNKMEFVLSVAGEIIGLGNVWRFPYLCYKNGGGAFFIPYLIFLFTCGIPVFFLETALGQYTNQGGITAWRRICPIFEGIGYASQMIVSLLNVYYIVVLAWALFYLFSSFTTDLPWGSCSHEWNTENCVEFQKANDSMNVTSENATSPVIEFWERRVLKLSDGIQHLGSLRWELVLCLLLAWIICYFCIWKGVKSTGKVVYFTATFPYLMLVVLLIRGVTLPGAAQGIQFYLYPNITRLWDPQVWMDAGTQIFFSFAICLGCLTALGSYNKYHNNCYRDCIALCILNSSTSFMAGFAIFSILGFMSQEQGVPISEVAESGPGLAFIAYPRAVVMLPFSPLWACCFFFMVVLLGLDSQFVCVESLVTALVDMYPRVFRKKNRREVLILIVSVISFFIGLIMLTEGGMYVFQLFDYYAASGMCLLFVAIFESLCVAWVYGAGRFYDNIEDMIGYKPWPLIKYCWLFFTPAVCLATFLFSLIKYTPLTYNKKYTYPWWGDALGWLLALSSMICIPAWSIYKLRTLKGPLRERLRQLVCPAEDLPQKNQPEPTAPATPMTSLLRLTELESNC

[8] = target: T5, Beta-secretase 1 (Homo sapiens, UniProt P56817); details: dose 50.0 µM, time 60.0 min
[9] = target: T6, GABA transporter 4 (Mus musculus, UniProt P31650); assay: Inhibition of mouse GAT4 expressed in HEK293 cell line assessed as reduction in [3H]GABA uptake incubated for 10 mins; type: cell-based
T6 sequence (P31650 whole entry): T1 sequence (whole entry)

[10] = target: Cholinesterase (Equus caballus, UniProt P81908)
Description: Inhibition of equine serum BuChE using butyrylthiocholine as substrate preincubated for 5 mins followed by substrate addition and measured after 5 mins by Ellman's method

[11] = Hepatotoxicity in human HepG2 cells at 1 uM incubated for 72 hrs by MTS assay; type: cell-based; details: hepg2, 72 h
[12] = target: Cytochrome P450 2D6 (Homo sapiens, UniProt P10635); assay: Inhibition of CYP2D6 (unknown origin) at 10 uM; type: ADME
[13] = target: T5, Beta-secretase 1
[14] = Hepatotoxicity in human HepG2 cells at 50 to 100 uM incubated for 72 hrs by MTS assay; type: cell-based; details: hepg2, 72 h, dose 50-100 µM
[15] = target: Cytochrome P450 3A4 (Homo sapiens, UniProt P08684); assay: Inhibition of CYP3A4 (unknown origin) at 10 uM; type: ADME
[16] = target: T3, Cholinesterase
Description: Inhibition of human BuchE using butyrylthiocholine as substrate preincubated for 5 mins followed by substrate addition and measured after 5 mins by Ellman's method

[17] = Metabolic stability in human liver microsomes assessed as parent compound remaining after 120 mins in presence of NADPH regeneration system by UPLC/MS anlaysis; type: ADME, Microsome; details: read-out: Stabilty
[18] = target: Acetylcholinesterase (Electrophorus electricus, UniProt O42275); assay: Inhibition of electric eel AChE using acetylthiocholine as substrate preincubated for 5 mins followed by substrate addition and measured after 5 mins by Ellman's method
[19] = target: Sodium- and chloride-dependent GABA transporter 1 (Mus musculus) (UniProt P31648); assay: Inhibition of mouse GAT1 expressed in HEK293 cell line assessed as reduction in [3H]GABA uptake at 100 uM incubated for 10 mins relative to control; type: cell-based
[20] = target: T1, GABA transporter 4 (Mus musculus); assay: Inhibition of mouse GAT4 expressed in HEK293 cell line assessed as reduction in [3H]GABA uptake at 100 uM incubated for 10 mins relative to control; type: cell-based
[21] = target: Cholinesterase (Equus caballus) (UniProt P81908); assay: Inhibition of equine serum BuChE at 10 uM using butyrylthiocholine as substrate preincubated for 5 mins followed by substrate addition and measured after 5 mins by Ellman's method relative to control; details: time 10.0 min
[22] = Neurotoxicity against mouse HT22 cells assessed as cell viability at 10 uM incubated for 24 hrs by MTT assay; type: cell-based, HT-22; details: for Activity: ht-22, 24 h, 10 µM
[23] = target: Microtubule-associated protein tau (Homo sapiens) (UniProt P10636); assay: Inhibition of tau aggregation (unknown origin) at 10 uM after 72 hrs by thioflavin-T fluorometric assay relative to control
[24] = Neurotoxicity against mouse HT22 cells assessed as cell viability at 30 uM incubated for 24 hrs by MTT assay; type: cell-based, HT-22; details: for Activity: ht-22, 24 h, 30 µM
[25] = target: T2, Sodium- and chloride-dependent GABA transporter 1; assay: Inhibition of NO711 binding to mouse GAT1 expressed in HEK cell membranes incubated for 40 mins in presence of NO711 by LC-ESI-MS/MS analysis; parameters: species or system Membrane
[26] = target: Cholinesterase (Equus caballus) (UniProt P81908); assay: Noncompetitive inhibition of equine serum BuChE assessed as decrease in Vmax with constant Km using varying concentrations of BTC as substrate by Lineweaver-burk and Cornish-Bowden plot analysis

Sequence of Acetylcholinesterase (Electrophorus electricus) (O42275 24-633 limits assumed): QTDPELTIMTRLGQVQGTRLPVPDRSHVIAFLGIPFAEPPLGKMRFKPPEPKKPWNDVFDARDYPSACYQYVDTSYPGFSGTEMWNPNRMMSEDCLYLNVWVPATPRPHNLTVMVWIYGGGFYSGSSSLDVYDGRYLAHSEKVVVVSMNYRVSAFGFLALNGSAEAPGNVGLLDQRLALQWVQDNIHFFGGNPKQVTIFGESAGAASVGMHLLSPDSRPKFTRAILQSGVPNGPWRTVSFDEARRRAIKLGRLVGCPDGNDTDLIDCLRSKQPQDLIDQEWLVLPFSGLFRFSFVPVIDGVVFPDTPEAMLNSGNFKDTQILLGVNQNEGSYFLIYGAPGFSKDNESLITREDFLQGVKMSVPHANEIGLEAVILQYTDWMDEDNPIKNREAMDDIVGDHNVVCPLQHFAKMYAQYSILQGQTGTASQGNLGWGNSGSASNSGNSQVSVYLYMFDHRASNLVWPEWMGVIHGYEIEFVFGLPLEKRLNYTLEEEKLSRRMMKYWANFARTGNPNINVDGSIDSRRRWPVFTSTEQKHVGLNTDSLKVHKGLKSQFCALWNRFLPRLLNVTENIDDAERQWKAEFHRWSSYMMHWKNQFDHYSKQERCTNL
T5 sequence (P56817 whole entry): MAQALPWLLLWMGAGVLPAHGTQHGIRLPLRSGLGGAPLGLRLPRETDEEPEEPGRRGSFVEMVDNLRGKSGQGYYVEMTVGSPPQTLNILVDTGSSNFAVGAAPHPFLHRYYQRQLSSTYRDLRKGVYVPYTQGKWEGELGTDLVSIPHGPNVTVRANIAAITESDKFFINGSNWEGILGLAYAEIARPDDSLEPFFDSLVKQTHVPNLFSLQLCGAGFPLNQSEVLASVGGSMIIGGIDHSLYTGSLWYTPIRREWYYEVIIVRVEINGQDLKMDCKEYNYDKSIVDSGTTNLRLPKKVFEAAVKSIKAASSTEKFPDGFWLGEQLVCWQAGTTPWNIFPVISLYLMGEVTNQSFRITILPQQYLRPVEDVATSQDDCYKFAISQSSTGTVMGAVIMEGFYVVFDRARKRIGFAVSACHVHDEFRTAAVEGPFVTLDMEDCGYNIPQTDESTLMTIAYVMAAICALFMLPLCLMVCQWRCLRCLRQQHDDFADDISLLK
Sequence of Amyloid-beta precursor protein (Homo sapiens) (P05067 whole entry): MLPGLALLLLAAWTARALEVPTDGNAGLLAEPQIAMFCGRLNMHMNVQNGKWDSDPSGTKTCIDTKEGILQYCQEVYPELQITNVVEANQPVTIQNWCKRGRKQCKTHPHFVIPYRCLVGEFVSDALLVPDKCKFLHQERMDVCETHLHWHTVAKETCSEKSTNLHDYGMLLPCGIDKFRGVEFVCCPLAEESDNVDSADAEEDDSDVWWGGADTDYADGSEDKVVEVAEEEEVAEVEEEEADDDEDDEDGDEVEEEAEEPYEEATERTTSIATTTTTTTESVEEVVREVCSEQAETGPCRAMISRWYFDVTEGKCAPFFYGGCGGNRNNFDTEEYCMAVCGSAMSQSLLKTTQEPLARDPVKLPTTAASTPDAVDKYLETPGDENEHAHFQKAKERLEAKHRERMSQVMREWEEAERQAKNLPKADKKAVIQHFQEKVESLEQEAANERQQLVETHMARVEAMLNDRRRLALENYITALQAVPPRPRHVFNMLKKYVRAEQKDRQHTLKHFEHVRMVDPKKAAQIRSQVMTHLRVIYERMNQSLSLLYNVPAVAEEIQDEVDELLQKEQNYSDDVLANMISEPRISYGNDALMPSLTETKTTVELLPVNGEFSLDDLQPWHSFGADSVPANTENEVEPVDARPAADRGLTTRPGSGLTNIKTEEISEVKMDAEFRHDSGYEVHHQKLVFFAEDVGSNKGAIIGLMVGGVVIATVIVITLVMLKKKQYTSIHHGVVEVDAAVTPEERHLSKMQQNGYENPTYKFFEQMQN
Sequence of Cholinesterase (Equus caballus) (P81908 whole entry): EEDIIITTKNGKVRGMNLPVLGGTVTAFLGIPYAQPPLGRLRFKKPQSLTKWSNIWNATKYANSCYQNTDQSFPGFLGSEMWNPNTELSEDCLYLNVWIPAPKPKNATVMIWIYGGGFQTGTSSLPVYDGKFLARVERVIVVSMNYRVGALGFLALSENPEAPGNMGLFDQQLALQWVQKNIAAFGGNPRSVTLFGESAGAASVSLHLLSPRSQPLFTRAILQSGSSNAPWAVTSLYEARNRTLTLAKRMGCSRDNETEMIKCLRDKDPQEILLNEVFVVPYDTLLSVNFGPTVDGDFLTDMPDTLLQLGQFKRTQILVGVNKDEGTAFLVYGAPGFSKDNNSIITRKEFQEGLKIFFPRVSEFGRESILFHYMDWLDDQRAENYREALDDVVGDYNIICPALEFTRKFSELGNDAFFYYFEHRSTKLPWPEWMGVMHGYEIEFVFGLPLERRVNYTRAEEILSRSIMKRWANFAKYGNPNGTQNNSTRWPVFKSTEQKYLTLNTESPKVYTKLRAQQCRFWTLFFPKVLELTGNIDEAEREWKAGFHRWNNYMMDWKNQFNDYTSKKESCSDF
Sequence of Cholinesterase (Equus caballus, UniProt P81908) (P81908 whole entry): as above
T3 sequence (P06276 whole entry): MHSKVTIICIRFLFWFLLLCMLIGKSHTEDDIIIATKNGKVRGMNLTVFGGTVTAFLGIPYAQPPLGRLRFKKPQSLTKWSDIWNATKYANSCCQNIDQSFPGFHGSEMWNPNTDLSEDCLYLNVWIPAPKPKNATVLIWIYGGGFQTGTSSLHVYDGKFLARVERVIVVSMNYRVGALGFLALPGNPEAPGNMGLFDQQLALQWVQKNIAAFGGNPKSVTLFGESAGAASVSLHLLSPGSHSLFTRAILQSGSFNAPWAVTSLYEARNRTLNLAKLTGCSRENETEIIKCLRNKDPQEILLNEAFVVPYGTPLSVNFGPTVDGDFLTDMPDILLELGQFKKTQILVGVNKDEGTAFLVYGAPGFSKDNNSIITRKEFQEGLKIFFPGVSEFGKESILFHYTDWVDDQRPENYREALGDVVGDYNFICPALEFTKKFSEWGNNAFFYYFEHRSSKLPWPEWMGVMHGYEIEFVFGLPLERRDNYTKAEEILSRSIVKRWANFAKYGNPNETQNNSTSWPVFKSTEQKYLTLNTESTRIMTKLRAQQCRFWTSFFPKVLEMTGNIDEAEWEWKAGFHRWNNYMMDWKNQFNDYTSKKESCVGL
Sequence of Acetylcholinesterase (O42275 whole entry): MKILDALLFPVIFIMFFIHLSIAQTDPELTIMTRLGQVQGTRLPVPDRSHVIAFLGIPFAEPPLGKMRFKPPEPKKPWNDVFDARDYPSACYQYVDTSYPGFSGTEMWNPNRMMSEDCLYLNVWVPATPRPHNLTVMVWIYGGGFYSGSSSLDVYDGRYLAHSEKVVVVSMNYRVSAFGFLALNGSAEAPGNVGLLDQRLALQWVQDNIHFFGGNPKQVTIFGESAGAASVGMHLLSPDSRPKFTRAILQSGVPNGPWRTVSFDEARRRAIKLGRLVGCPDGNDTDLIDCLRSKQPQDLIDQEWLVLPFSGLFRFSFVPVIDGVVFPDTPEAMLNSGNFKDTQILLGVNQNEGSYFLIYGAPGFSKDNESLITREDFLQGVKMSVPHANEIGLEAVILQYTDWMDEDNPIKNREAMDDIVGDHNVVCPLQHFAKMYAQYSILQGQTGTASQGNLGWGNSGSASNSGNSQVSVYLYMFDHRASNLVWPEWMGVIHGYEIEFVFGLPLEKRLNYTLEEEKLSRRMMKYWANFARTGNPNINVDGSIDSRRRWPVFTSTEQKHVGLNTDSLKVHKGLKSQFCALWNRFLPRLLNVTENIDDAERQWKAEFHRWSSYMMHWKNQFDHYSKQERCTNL

Row | SMILES | inhibition [1] | inhibition [2] | inhibition [3] | inhibition [4] | IC50 [5] | inhibition [6] | inhibition [8] | IC50 [10] | IC50 [13] | IC50 [16] | inhibition [20] | inhibition [21] | other results
1 | O=C(CC(c1ccccc1)c1ccccc1)N[C@@H](Cc1ccccc1)[C@H](O)CNCC1CC1 | < 10% | 51% | 20.5% | 83% | 39.8 µM | 41.1% | < 10% | 3.23 µM |  |  |  |  | inhibition [7]: 60%; IC50 [9]: 35.5 µM
2 | CC(C)c1cccc(CNC[C@@H](O)[C@H](Cc2ccccc2)NC(=O)CC(c2ccccc2)c2ccccc2)c1 | 24% |  | 20.5% |  |  |  |  | 0.65 µM | 4.6 µM | 0.5 µM |  |  | Activity [11]: Non-Toxic; inhibition (INH) [12]: Active; Activity [14]: Toxic; inhibition (INH) [15]: Active; remaining at 2 h [17]: 67.9%
3 | CC(C)c1cccc(CNC[C@@H](O)[C@H](Cc2ccccc2)NC(=O)C(c2ccccc2)c2ccccc2)c1 |  |  | 20.5% |  |  |  | 66% | 0.5 µM |  | 0.08 µM |  |  | IC50 [18]: 5.13 µM
4 | O=C(N[C@@H](Cc1ccccc1)[C@H](O)CNCC(F)(F)F)C(c1ccccc1)c1ccccc1 | < 10% | 92% | 20.5% | 100% |  | < 10% |  |  | 15.4 µM |  | 102% | 26.3% | inhibition [19]: 92%; inhibition [7]: 87%
5 | C[C@H](NC[C@@H](O)[C@H](Cc1ccccc1)NC(=O)CC(c1ccccc1)c1ccccc1)c1ccccc1 | < 10% | 69% | 20.5% | 66% |  | 36.4% | 74.1% | 8.86 µM |  |  | 55% |  | inhibition [19]: 59%; viability at 24 h, 10 µM ([22]; HT22 cells, read-out: Activity): 100%; inhibition [23]: 73.1%; inhibition [7]: 51%; viability at 24 h, 30 µM ([24]; HT22 cells, read-out: Activity): 50%
6 | O=C(CC(c1ccccc1)c1ccccc1)N[C@@H](Cc1ccccc1)[C@@H](O)CNCc1cccc(C(F)(F)F)c1 | 36.8% |  | 20.5% |  |  | < 10% |  |  | 8.3 µM |  |  | 29.5% | 
7 | CC(C)(C)CNC[C@@H](O)[C@H](Cc1ccccc1)NCC(c1ccccc1)c1ccccc1 | < 10% |  | 34.7% |  | 26.3 µM |  | 63.9% | 0.59 µM |  | 0.19 µM |  |  | IC50 [9]: 9.77 µM; IC50 [25]: 85.1 µM
8 | O=C(CC(c1ccccc1)c1ccccc1)N[C@@H](Cc1ccccc1)[C@H](O)CNCC(F)(F)F | < 10% |  | 20.5% |  |  | < 10% | 24.4% |  |  |  |  | 19.2% | 
9 | CC(C)(NC[C@@H](O)[C@H](Cc1ccccc1)NC(=O)C(c1ccccc1)c1ccccc1)c1ccccc1 | < 10% |  | 20.5% |  |  | < 10% | 76.1% |  |  |  |  | 45.9% | 
10 | O[C@@H](CNCc1ccccc1)[C@H](Cc1ccccc1)NCCC(c1ccccc1)c1ccccc1 | < 10% |  | 34.7% |  | 7.59 µM |  | 58% | 0.65 µM |  | 0.63 µM |  |  | Activity [22]: Toxic; inhibition [23]: 85.8%; IC50 [9]: 5.5 µM; IC50 [25]: 30.2 µM
11 | CC(C)(C)c1cccc(CNC[C@@H](O)[C@H](Cc2ccccc2)NC(=O)C(c2ccccc2)c2ccccc2)c1 |  | 55% | 20.5% | 82% | 11 µM |  |  | 0.06 µM | 5.9 µM | 0.02 µM | 55% |  | inhibition [26]: Active; Activity [11]: Non-Toxic; inhibition (INH) [12]: Active; Activity [14]: Toxic; Activity [22]: Non-Toxic; inhibition (INH) [15]: Active; Activity [24]: Toxic; remaining at 2 h [17]: 79.6%; IC50 [18]: 2.86 µM
12 | C[C@H](NC[C@@H](O)[C@H](Cc1ccccc1)NC(=O)C(c1ccccc1)c1ccccc1)c1ccccc1 | < 10% | 84% | 20.5% | 81% |  | 14.5% | 61.7% | 1.82 µM |  |  | 79% |  | inhibition [19]: 77%
13 | CC(C)(C)c1ccc(CNCC(O)[C@H](Cc2ccccc2)NC(=O)CC(c2ccccc2)c2ccccc2)cc1 (single isomer, unassigned) | < 10% |  | 20.5% |  |  |  |  | 0.17 µM | 6.2 µM | 0.88 µM |  |  | Activity [22]: Non-Toxic; Activity [24]: Toxic
